Data published in patent US9655913B2, “Anti-esophageal cancer compound and method of use thereof” (Hong Kong Baptist University, priority 2015, dated 2017).
Entries after “also recorded” stand apart in the source; their conditions may differ.

Columns and labels:
KYSE-70 = test: MTT cytotoxicity assay, KYSE-70; format: cell-based, Human; settings: KYSE-70, highest concentration of 50 μg/mL, 48 hours
Description: (§1) In this invention, compound 1 was dissolved in dimethyl sulfoxide (DMSO) to make stock solutions and further diluted in culture medium for this experiment. Human esophagus carcinoma cancer cell lines (KYSE-70, KYSE-150, KYSE-450 and KYSE-520) were cultured in RPMI 1640 or DMEM medium, containing 10% fetal bovine serum and 1% antibiotics (Penicillin and strep). The cell lines were cultured at 37° C. in a humidified environment containing 5% CO2. A standard colorimetric MTT assay was used to determine the cell viability. Cells were seeded in a 96-well plate (3×10^3 cells/well) and allowed to attach to the plate overnight. After the recovery, cells were treated with various concentrations of compound 1 or the crude extract (1.56, 3.125, 6.25, 12.5, 25, 50 μg/mL) for 48 hours. Then, 20 μL of MTT (5 mg/mL stock in PBS) per well was added into the medium (200 μL) and incubated for 4 hours at 37° C. Finally, the culture medium was removed and 200 μL of DMSO were added. Absorbance of the solution was measured using a microplate reader spectrophotometer (Bio-Rad Laboratories, Inc., Hercules, Calif.) at a wavelength of 570 nm.

KYSE-150 = test: MTT cytotoxicity assay, KYSE-150; format: cell-based, Human; settings: KYSE-150, highest concentration of 50 μg/mL, 48 hours
Description: as §1

KYSE-450 = test: MTT cytotoxicity assay, KYSE-450; format: cell-based, Human; settings: KYSE-450, highest concentration of 50 μg/mL, 48 hours
Description: as §1

KYSE-520 = test: MTT cytotoxicity assay, KYSE-520; format: cell-based, Human; settings: KYSE-520, highest concentration of 50 μg/mL, 48 hours
Description: as §1

KYSE-150 cells [1] = test: Wound healing assay; format: cell-based, human; settings: KYSE-150, 50 μg/mL, after 72 hours, vs control
Description: Cells were seeded in 12 wells plate at 30% confluence by scoring with a sterile plastic tip (1 mL), then washed several times with medium to remove cell debris and then incubated in the conditioned medium in the absence or presence of compound 1 at 50 μg/mL for various periods of time up to 72 hours. Cell migration into the wound surface was monitored by Olympus IX71 microscopy and digitally photographed.
To further examine the inhibitory effect of compound 1 on the migratory activity of cancer cell, a confluent monolayer of KYSE-150 cells was scratched to form a wound and incubated in the absence or presence of compound 1 (50 μg/mL) as compared to that of controls.

KYSE-150 cells [2] = test: Tumor xenograft mouse model; format: in vivo, Balb/c nude mice; settings: 15 and 30 mg/kg/day intraperitoneal, 12 days, vs saline control
Description: Six to eight-week-old female Balb/c nude weighing between 16-20 g were bred in 12 h day/night cycle environment with free access to food and water. 2×10^6 KYSE-150 cells per […] saline were injected subcutaneously into the flanks of the mice. When the tumor volume reached about 100 mm^3, the mice were randomly divided into three groups (n=5) as followed: (i) a control group: administered with saline; (ii) a low dosage group: administered with compound 1 at 15 mg/kg/day by intraperitoneal injection; (iii) a high dosage group, administered with compound 1 at 30 mg/kg/day by intraperitoneal injection. Tumor volumes were calculated with calipers every two days according to the formula: Volume=(width)^2×length/2. After 12 days observation, mice were killed to remove the tumor. Then the samples were fixed in 4% paraformaldehyde and embedded in paraffin. Five-micro-meter sections were stained with hematoxylin/eosin according to a standard procedure. The protocol was approved by the committee for Care of Laboratory Animals in the School of Chinese Medicine at the Hong Kong Baptist University.

## COc1cc(-c2oc3cc(O)cc(O)c3c(=O)c2OC2OC(COC3OC(C)C(O)C(O)C3O)C(O)C(O)C2O)ccc1O (stereo not drawn) [compound 1]
KYSE-70
  Cytotoxicity (cell viability): no cytotoxicity was observed
KYSE-150
  Cytotoxicity (cell viability): cells viability was not altered; also recorded: no cytotoxicity was observed
KYSE-450
  Cytotoxicity (cell viability): no cytotoxicity was observed
KYSE-520
  Cytotoxicity (cell viability): no cytotoxicity was observed
KYSE-150 cells [1]
  Cell migration: significantly inhibited the cell migration
KYSE-150 cells [2]
  Body weight: significantly reduced
  H&E staining of tumor tissue: massive necrotizing tissue
  Tumor growth (tumor volume): significantly reduced
  Tumor weight: significantly reduced tumor weight
